Test results: the NIST ThermoML archive (doi:10.1021/je900722m)

Assay: xn = mol fraction of the nth substance listed
Details: 101 kPa, Liquid

CC(C)CO [2-methyl-1-propanol] + CCCCO
Details	mass density, 323.15 K [kg/m3]	mass density, 328.15 K [kg/m3]	mass density, 333.15 K [kg/m3]	mass density, 338.15 K [kg/m3]	mass density, 343.15 K [kg/m3]	viscosity, 323.15 K [mPa·s]	viscosity, 328.15 K [mPa·s]	viscosity, 333.15 K [mPa·s]	viscosity, 338.15 K [mPa·s]	viscosity, 343.15 K [mPa·s]
x2 = 0.101	–	774.633	770.368	766.021	761.578	–	1.68	1.507	1.342	1.204
x2 = 0.2029	–	775.537	771.292	766.966	762.548	–	1.692	1.523	1.363	1.226
x2 = 0.3008	–	776.405	772.177	767.871	763.474	–	1.689	1.52	1.361	1.23
x2 = 0.4	–	777.281	773.068	768.778	764.4	–	1.684	1.511	1.357	1.228
x2 = 0.5	–	778.156	773.961	769.689	765.333	1.91	1.673	1.499	1.351	1.225
x2 = 0.5999	783.136	779.026	774.846	770.594	766.26	1.89	1.668	1.489	1.343	1.218
x2 = 0.6999	783.985	779.893	775.732	771.495	767.182	1.877	1.662	1.488	1.341	1.215
x2 = 0.7993	784.825	780.744	776.596	772.378	768.085	1.864	1.658	1.484	1.338	1.213
x2 = 0.8995	785.654	781.588	777.457	773.258	768.986	1.843	1.65	1.48	1.335	1.211
